In ChEMBL document CHEMBL5108060, “Discovery, Characterization, and Structure-Based Optimization of Small-Molecule In Vitro and In Vivo Probes for Human DNA Polymerase Theta” (J Med Chem, 2022):
Converted amounts (≈) assume the structure as drawn. The source made the active and inactive calls. The rule behind the calls is not given here.

How the values were obtained:
[1] = biological target: T1, DNA polymerase theta (Homo sapiens, UniProt O75417); assay: Displacement of tracer from recombinant Tb-labeled DNA polymerase theta (unknown origin) using DNA as substrate preincubated for 30 mins followed by compound addition for 2 hrs by HTRF assay
[2] = biological target: T1, DNA polymerase theta; assay: Displacement of tracer from recombinant Tb-labeled DNA polymerase theta (unknown origin) assessed as end point Kd using DNA as substrate preincubated for 30 mins followed by compound addition for 2 hrs by HTRF assay
[3] = tested on: DLD-1; assay: Antiproliferative activity against human BRCA-2 deficient DLD-1 cells; format: functional, cell-based
[4] = Inhibition of microhomology-mediated end joining in HEK293 cells; format: functional, cell-based, Homo sapiens
[5] = tested on: DLD-1; assay: Antiproliferative activity against human DLD-1 cells; format: functional, cell-based
[6] = biological target: T1, DNA polymerase theta; assay: Inhibition of recombinant human full length DNA polymerase theta using DNA substrate measured after 1 hrs in presence of dNTPs by plate reader assay
[7] = Lipophilicity, logD of compound; format: physicochemical; conditions: octanol/water
[8] = Metabolic stability in mouse liver microsomes assessed as intrinsic clearance; format: ADME, Microsome; conditions: read-out: CLH
[9] = Metabolic stability in human liver microsomes assessed as intrinsic clearance; format: ADME, Microsome; conditions: read-out: CLH
[10] = Metabolic stability in rat liver microsomes assessed as intrinsic clearance; format: ADME, Microsome; conditions: read-out: CLH
[11] = Oral bioavailability in rat at 10 mg/kg; format: ADME, organism-based; conditions: in vivo
[12] = Clearance in mouse plasma at 3 mg/kg, iv; format: ADME, organism-based
[13] = AUCinfinity in rat at 10 mg/kg, po; format: ADME, organism-based; parameters: time infinity, dose 10 mg/kg, route po; conditions: in vivo
[14] = Solubility of the compound; format: physicochemical
[15] = Volume of distribution at steady state in mouse at 3 mg/kg, iv; format: ADME, organism-based; conditions: in vivo, read-out: Vdss
[16] = Mutagenicity in Salmonella typhimurium LT2 TA100 in presence or absence of S9 fraction by Ames test; format: toxicity; conditions: salmonella enterica subsp. enterica serovar typhimurium
[17] = Clearance in mouse plasma at 0.3 mg/kg, iv; format: ADME, organism-based
[18] = Free maximum concentration of drug in rat at 10 mg/kg, po; format: ADME, organism-based; conditions: in vivo
[19] = AUCinfinity in mouse at 10 mg/kg, po; format: ADME, organism-based; parameters: time infinity, dose 10 mg/kg, route po; conditions: in vivo
[20] = Oral bioavailability in mouse at 10 mg/kg; format: ADME, organism-based; conditions: in vivo
[21] = Half life in mouse at 3 mg/kg, iv; format: ADME, organism-based; conditions: in vivo
[22] = In vivo inhibition of DNA polymerase theta in mouse assessed as fold induction of micronuclei in reticulocytes at 150 mg/kg, po BID for 4 days by flow cytometry analysis; format: functional; conditions: time 4 day
[23] = Volume of distribution at steady state in rat at 3 mg/kg, iv; format: ADME, organism-based; conditions: in vivo, read-out: Vdss
[24] = Mutagenicity in Salmonella typhimurium LT2 TA98 in presence or absence of S9 fraction by Ames test; format: toxicity; conditions: salmonella enterica subsp. enterica serovar typhimurium
[25] = Free maximum concentration of drug in mouse at 10 mg/kg, po; format: ADME, organism-based; conditions: in vivo
[26] = Clearance in rat plasma at 3 mg/kg, iv; format: ADME, organism-based
[27] = tested on: Breast carcinoma cell; assay: Antitumor activity against BRCA1/SHLD2 knockout rat breast cancer xenograft model assessed as tumor growth inhibition at 100 mg/kg, po qd; format: functional, organism-based
[28] = Half life in rat at 3 mg/kg, iv; format: ADME, organism-based; conditions: in vivo
[29] = Thermodynamic solubility of the compound; format: physicochemical; conditions: read-out: Therm_solubility
[30] = biological target: T1, DNA polymerase theta; assay: Inhibition of human full length DNA polymerase theta ATPase activity by ADP-Glo assay

T1 sequence (O75417 whole entry): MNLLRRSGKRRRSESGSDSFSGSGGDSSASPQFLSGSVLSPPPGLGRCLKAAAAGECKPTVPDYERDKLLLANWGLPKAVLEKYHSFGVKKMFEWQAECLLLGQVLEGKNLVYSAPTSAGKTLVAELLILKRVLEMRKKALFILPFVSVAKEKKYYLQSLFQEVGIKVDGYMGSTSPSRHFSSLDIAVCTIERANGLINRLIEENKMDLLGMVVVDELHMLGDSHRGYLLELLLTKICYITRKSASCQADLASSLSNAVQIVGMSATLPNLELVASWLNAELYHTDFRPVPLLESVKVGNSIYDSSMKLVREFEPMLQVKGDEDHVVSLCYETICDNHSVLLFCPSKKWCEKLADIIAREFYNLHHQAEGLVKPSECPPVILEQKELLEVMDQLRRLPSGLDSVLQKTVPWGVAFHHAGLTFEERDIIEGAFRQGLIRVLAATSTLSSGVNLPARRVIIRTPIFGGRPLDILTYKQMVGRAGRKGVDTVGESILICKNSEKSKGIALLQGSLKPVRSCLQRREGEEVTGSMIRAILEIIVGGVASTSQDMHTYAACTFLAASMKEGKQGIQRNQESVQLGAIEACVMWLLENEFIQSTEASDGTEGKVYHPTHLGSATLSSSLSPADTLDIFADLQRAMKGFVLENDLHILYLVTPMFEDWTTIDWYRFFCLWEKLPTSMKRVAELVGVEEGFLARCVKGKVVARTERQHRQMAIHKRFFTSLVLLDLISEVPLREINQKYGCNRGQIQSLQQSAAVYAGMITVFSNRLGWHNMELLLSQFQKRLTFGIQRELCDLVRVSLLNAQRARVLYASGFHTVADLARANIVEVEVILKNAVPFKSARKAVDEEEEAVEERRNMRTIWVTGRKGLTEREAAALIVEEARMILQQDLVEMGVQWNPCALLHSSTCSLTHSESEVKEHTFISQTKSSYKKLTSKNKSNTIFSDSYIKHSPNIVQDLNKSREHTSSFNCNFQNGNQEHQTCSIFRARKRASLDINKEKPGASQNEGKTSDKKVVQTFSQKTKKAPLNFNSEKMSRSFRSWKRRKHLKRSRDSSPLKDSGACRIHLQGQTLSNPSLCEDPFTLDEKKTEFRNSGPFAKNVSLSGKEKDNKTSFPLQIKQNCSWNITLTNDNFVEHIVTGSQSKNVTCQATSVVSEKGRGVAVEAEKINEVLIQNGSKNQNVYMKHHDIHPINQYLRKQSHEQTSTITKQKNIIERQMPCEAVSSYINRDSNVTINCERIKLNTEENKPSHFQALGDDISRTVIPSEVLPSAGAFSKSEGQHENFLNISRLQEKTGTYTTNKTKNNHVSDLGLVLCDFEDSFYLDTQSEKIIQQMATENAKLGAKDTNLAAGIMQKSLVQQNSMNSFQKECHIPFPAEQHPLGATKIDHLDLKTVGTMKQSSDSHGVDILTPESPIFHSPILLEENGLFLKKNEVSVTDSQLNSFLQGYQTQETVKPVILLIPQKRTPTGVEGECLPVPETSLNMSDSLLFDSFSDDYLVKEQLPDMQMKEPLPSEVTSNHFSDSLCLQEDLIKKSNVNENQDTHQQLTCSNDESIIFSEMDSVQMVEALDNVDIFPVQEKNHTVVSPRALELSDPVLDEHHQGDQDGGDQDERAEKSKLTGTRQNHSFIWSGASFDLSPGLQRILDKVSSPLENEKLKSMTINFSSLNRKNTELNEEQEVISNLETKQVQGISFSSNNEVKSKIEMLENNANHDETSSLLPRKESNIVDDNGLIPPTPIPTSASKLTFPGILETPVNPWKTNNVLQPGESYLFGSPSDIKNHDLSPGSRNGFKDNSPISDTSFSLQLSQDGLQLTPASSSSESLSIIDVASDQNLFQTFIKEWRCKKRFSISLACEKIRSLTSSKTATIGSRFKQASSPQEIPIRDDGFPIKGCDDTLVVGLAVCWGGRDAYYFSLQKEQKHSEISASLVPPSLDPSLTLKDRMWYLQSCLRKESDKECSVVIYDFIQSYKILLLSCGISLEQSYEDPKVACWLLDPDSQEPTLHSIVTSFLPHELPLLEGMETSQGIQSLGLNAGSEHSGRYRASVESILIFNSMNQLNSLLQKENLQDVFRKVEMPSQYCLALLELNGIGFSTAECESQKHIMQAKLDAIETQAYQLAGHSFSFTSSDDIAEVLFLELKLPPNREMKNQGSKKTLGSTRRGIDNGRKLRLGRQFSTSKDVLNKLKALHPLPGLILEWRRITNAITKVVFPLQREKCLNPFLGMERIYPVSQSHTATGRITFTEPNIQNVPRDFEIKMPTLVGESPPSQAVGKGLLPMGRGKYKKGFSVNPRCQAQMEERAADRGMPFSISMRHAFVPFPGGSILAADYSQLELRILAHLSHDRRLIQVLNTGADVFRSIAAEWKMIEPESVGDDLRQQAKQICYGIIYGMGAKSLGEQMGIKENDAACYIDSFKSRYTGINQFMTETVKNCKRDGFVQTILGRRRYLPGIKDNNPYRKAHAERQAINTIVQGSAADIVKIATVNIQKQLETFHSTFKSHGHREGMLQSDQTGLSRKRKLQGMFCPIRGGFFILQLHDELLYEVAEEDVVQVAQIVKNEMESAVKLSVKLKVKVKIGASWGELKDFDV

Cc1cccc(N(C)C(=O)[C@@H]2C[C@H](O)CN2c2nc(C)cc(C)c2C#N)c1
Kd [1]: 19 nM | Kd [2]: 51 nM | EC50 [3]: 4100 nM | EC50 [4]: 280 nM | EC50 [5]: > 12000 nM

CCN(C(=O)[C@H](C)Nc1nc(C)cc(C(F)(F)F)c1C#N)c1cccc(C)c1
IC50 [6]: 29 nM

CCN(C(=O)COc1nc(C)cc(C)c1C#N)c1cccc(C)c1
Kd [2]: 820 nM | EC50 [3]: > 12000 nM | IC50 [6]: 4400 nM | EC50 [4]: 1840 nM | EC50 [5]: > 12000 nM

CCN(C(=O)[C@H](C)Nc1nc(C)cc(C(C)C)c1C#N)c1cccc(C)c1
IC50 [6]: 49 nM

Cc1cc(C(F)(F)F)cc(N2C(=O)OC[C@H]2C(=O)N(c2ccc(F)c(Cl)c2)C(C)C)n1
logD [7]: 4.4 | microsomal CLint [8]: 48 µL/min/mg

CCN(C(=O)[C@@H]1C[C@H](O)C(=O)N1c1cc(C(F)(F)F)cc(C)n1)c1ccc(F)c(Cl)c1
microsomal CLint [8]: 181 µL/min/mg

Cc1cc(C(F)(F)F)cc(N2C(=O)[C@@H](O)C[C@H]2C(=O)N(C)c2ccc(F)c(Cl)c2)n1
microsomal CLint [9]: 60 µL/min/mg | microsomal CLint [8]: 96 µL/min/mg

CCN(C(=O)CNc1nc(C)cc(C)c1C#N)c1cccc(C)c1
IC50 [6]: 1800 nM

Cc1cccc(N(C)C(=O)[C@@H]2COC(=O)N2c2cc(C(F)(F)F)cc(C)n2)c1
logD [7]: 3.6 | microsomal CLint [8]: 580 µL/min/mg

Cc1cc(C(F)(F)F)cc(N2C(=O)OC[C@H]2C(=O)N(C)c2cccc(Cl)c2F)n1
microsomal CLint [8]: 165 µL/min/mg

Cc1cccc(N(C)C(=O)[C@@H]2C[C@H](O)CN2c2nc(C)cc(C(F)(F)F)c2C#N)c1
EC50 [3]: 2300 nM | EC50 [4]: 205 nM | logD [7]: 3.6 | EC50 [5]: > 12000 nM

CCN(C(=O)[C@@H]1COCCN1c1nc(C)cc(C(F)(F)F)c1C#N)c1cccc(C)c1
IC50 [6]: 2700 nM

Cc1cccc(N(C(=O)[C@@H]2CCCN2c2nc(C)cc(C(F)(F)F)c2C#N)C(C)C)c1
IC50 [6]: 8.8 nM

CCN(C(=O)[C@@H]1[C@H](O)[C@H](O)C(=O)N1c1cc(C(F)(F)F)cc(C)n1)c1ccc(F)c(Cl)c1
microsomal CLint [10]: 30 µL/min/mg | EC50 [3]: 6900 nM | microsomal CLint [9]: < 10 µL/min/mg | EC50 [4]: 362 nM | EC50 [5]: > 12000 nM | microsomal CLint [8]: 20 µL/min/mg

CCN(C(=O)COc1nc(C)c(Cl)c(C)c1C#N)c1cccc(C)c1
IC50 [6]: 630 nM

CCN(C(=O)COc1nc(C)c(Br)c(C)c1C#N)c1cccc(C)c1
IC50 [6]: 1500 nM

Cc1cc(C(F)(F)F)cc(N2C(=O)[C@H](O)[C@H](O)[C@@H]2C(=O)N(C)c2ccc(F)c(Cl)c2)n1
EC50 [3]: > 12000 nM | IC50 [6]: > 12000 nM | EC50 [5]: > 12000 nM

Cc1cccc(N(C)C(=O)[C@@H]2[C@@H](O)CCN2c2nc(C)cc(C(F)(F)F)c2C#N)c1
Kd [1]: 24 nM | Kd [2]: 42 nM | EC50 [3]: 3000 nM | EC50 [4]: 320 nM | EC50 [5]: > 12000 nM

Cc1cccc(N(C)C(=O)[C@@H]2C[C@@H](O)CN2c2nc(C)cc(C(F)(F)F)c2C#N)c1
EC50 [3]: 6000 nM | EC50 [4]: 315 nM | EC50 [5]: > 12000 nM

Cc1cccc(N(C)C(=O)[C@@H]2CCC(=O)N2c2cc(C(F)(F)F)cc(C)n2)c1
IC50 [6]: 6.8 nM | logD [7]: 3.7 | microsomal CLint [8]: > 1000 µL/min/mg

CCN(C(=O)COc1cc(C(F)(F)F)cc(C)n1)c1cccc(C)c1
IC50 [6]: 530 nM

Cc1cc(C(F)(F)F)cc(N2C(=O)OC[C@H]2C(=O)N(C)c2cc(Cl)ccc2F)n1
microsomal CLint [8]: 157 µL/min/mg

CCN(C(=O)COc1cc(C(C)C)cc(C)n1)c1cccc(C)c1
IC50 [6]: 400 nM

CCN(C(=O)[C@@H]1CCCN1c1nc(C)cc(C)c1C#N)c1cccc(C)c1
IC50 [6]: 72 nM

CCN(C(=O)COc1nc(C)cc(C(F)(F)F)c1C#N)c1cccc(C)c1
Kd [2]: 61 nM | EC50 [3]: > 12000 nM | IC50 [6]: 500 nM | EC50 [4]: 680 nM | EC50 [5]: > 12000 nM

Cc1cc(C(F)(F)F)cc(N2C(=O)[C@@H](O)[C@@H](O)[C@H]2C(=O)N(C)c2ccc(F)c(Cl)c2)n1
bioavailability [11]: 57% | clearance [12]: 2.8 mL/min/kg | AUC(0-inf) [13]: 2750 ng·h/mL | solubility [14]: 880 µM (≈ 406 µg/mL) | microsomal CLint [10]: 50 µL/min/mg | EC50 [3]: 1100 nM | IC50 [6]: 7.6 nM | Vd [15]: 2.5 L/kg | microsomal CLint [9]: 30 µL/min/mg | Activity [16]: Non-Toxic | EC50 [4]: 240 nM | clearance [17]: 16.4 mL/min/kg | fCmax [18]: 79 nM | AUC(0-inf) [19]: 54700 ng·h/mL | bioavailability [20]: 80% | half-life [21]: 7 h | fold change (FC) [22]: 2 | Vd [23]: 2.9 L/kg | logD [7]: 3 | Activity [24]: Non-Toxic | fCmax [25]: 405 nM | EC50 [5]: > 12000 nM | clearance [26]: 35 mL/min/kg | Activity [27]: Active | half-life [28]: 1.3 h | microsomal CLint [8]: 42 µL/min/mg

Cc1cc(C(F)(F)F)cc(N2C(=O)OC[C@H]2C(=O)N(C)c2ccc(F)c(C)c2F)n1
IC50 [6]: 4.1 nM | microsomal CLint [8]: 818 µL/min/mg

Cc1cc(C(F)(F)F)c(C#N)c(N2C[C@@H](O)C[C@H]2C(=O)N(C)c2ccccc2)n1
Kd [2]: 110 nM | EC50 [3]: 8000 nM | EC50 [4]: 400 nM | EC50 [5]: > 12000 nM

CCN(C(=O)[C@@H](C)Nc1nc(C)cc(C(F)(F)F)c1C#N)c1cccc(C)c1
IC50 [6]: 5100 nM

Cc1cccc(N(C)C(=O)[C@@H]2C[C@H](O)CN2c2nccc(C(F)(F)F)c2C#N)c1
EC50 [3]: 11500 nM | EC50 [4]: 1030 nM | EC50 [5]: > 12000 nM

Cc1cc(C(F)(F)F)cc(N2C(=O)OC[C@H]2C(=O)N(C)c2cccc(Cl)c2)n1
microsomal CLint [8]: 410 µL/min/mg

CCN(C(=O)[C@H](CO)Nc1nc(C)cc(C(F)(F)F)c1C#N)c1cccc(C)c1
Kd [2]: 35 nM | EC50 [3]: 11000 nM | IC50 [6]: 79 nM | EC50 [4]: 255 nM | logD [7]: 4 | EC50 [5]: > 12000 nM

Cc1cc(C(F)(F)F)cc(N2C(=O)OC[C@H]2C(=O)N(C)c2cc(Cl)c(F)cc2F)n1
microsomal CLint [8]: 98 µL/min/mg

Cc1cccc(N(C)C(=O)[C@@H]2[C@H](O)CCN2c2nc(C)cc(C(F)(F)F)c2C#N)c1
Kd [1]: 4.8 nM | Kd [2]: 6.4 nM | EC50 [3]: 800 nM | solubility thermodynamic [29]: 381 µM (≈ 159 µg/mL) | EC50 [4]: 180 nM | logD [7]: 3.5 | EC50 [5]: > 12000 nM | IC50 [30]: > 12000 nM | microsomal CLint [8]: > 1500 µL/min/mg

Cc1cc(C(F)(F)F)cc(N2C(=O)OC[C@H]2C(=O)N(C)c2ccc(F)c(C)c2)n1
IC50 [6]: 9.4 nM | microsomal CLint [8]: 404 µL/min/mg

CCN(C(=O)[C@H](C)Nc1nc(C)cc(C)c1C#N)c1cccc(C)c1
IC50 [6]: 230 nM

Cc1cc(C(F)(F)F)cc(N2C(=O)C[C@@H](O)[C@H]2C(=O)N(C)c2ccc(F)c(Cl)c2)n1
EC50 [3]: 2000 nM | IC50 [6]: 5.9 nM | EC50 [4]: 255 nM | EC50 [5]: > 12000 nM | microsomal CLint [8]: 260 µL/min/mg

Cc1cc(C(F)(F)F)cc(N2C(=O)OC[C@H]2C(=O)N(C)c2ccc(F)c(Cl)c2)n1
IC50 [6]: 15 nM | microsomal CLint [8]: 138 µL/min/mg

CCN(C(=O)COc1nc(C)c(Br)c(C(F)(F)F)c1C#N)c1cccc(C)c1
IC50 [6]: 400 nM

Cc1cc(C(F)(F)F)cc(N2C(=O)OC[C@H]2C(=O)N(C)c2ccc(F)c(Cl)c2F)n1
IC50 [6]: 5.4 nM | microsomal CLint [8]: 210 µL/min/mg

CCN(C(=O)COc1cc(C)cc(C)n1)c1cccc(C)c1
IC50 [6]: 4200 nM

CCN(C(=O)[C@@H]1COC(=O)N1c1cc(C(F)(F)F)cc(C)n1)c1ccc(F)c(Cl)c1
logD [7]: 4 | microsomal CLint [8]: 260 µL/min/mg
